Where a name gives a salt, the structure may show the parent alone. Read-outs that look alike come from different tables or passages of the source.
Target: T1, human Cav3.2 channels (Homo sapiens, UniProt O95180)
T1 construct: expressed in transfected cells; host or cells: HEK293 cells (ATCC No. CRL-1573), plasmid pcDNA3.1(+)
Experiment: Intracellular calcium concentration measurement (Fluo-4 AM) in stable cells expressing human Cav3.2 channels, buffer A / buffer B
Type: cell-based
Excerpt: Construction of Stable Cells Expressing Human Cav3.2 Channels
(1) A sequence produced by incorporating HindIII site and kozak sequence (GCCACC) into the 5′-terminal side of human Cav3.2 channel ORF (Open Reading Frame) gene and incorporating Kpnl site into the 3′-terminal side was incorporated into pcDNA3.1(+) (Thermo-Fisher Scientific, Inc., #V790-20), and the plasmid was transfected into HEK293 cells (ATCC No. CRL-1573) according to the protocol of FuGENE (registered trademark) HD Transfection Reagent (PROMEGA #E2311).
(2) Method for Measuring Intracellular Calcium Concentration
In the present measurement system, buffer A and buffer B having different potassium ion concentrations were used in order to evaluate the state-dependent Cav3.2 inhibitory action of a test compound.
Stable cell line expressing human Cav3.2 channels, which had been produced in (1), was seeded in a 96-well plate using DMEM medium including 10% FBS, and the cells were cultured for 48 hours under the conditions of 37° C. and 5% CO2. Subsequently, the medium was removed, and various wells that had been washed with a base buffer were treated with 80 μL of a fluorescent dye solution containing a mixed liquid of 22 μg of calcium fluorescence indicator Fluo-4 AM (Dojindo Laboratories Co., Ltd., #F311), 20 μL of DMSO, […] of 10% Pluronic F-127 (Thermo-Fisher Scientific, Inc., #P6866), and 4 mL of a base buffer. The cells were left to stand for 45 minutes at room temperature in the dark, and then the cells were washed with buffer A or buffer B. Solutions having various test compound concentrations and respectively containing buffer A or buffer B were added to the respective wells, the respective solutions containing DMSO at the same final concentration as that of the test compound as negative control, or containing the test compound dissolved in 100% DMSO at a final concentration of 0.1%. The cells were left to stand for another 15 minutes at room temperature in the dark, and the cells were analyzed using the following method using a microplate reader, EnVision (PerkinElmer, Inc.). First, the background fluorescence for each well was measured, subsequently an ionophore was added to the well, and the fluorescence of the baseline was measured. Subsequently, buffer A or buffer B containing added KCl at a concentration of 83.8 mM or 91.8 mM was added to each well, and an increase in fluorescence caused by a calcium influx generated by that stimulus was measured for 10 seconds. The percentage inhibition was calculated from the maximum fluorescence increment from the baseline, and the logarithmic value of the test compound concentration and the inhibitory activity were plotted to calculate the IC50 value. The analysis was carried out by measuring the fluorescence at 510 nm emitted when the cells were irradiated with exciting light at 485 nm.
Base buffer: 140 mM NaCl, 5 mM KCl, 1 mM MgCl2, 0.5 mM CaCl2, 10 mM Glucose, and 10 mM HEPES, pH 7.3
Buffer A: Equilibrium potential of potassium: −92 mV

[1] = Table 1, buffer A, equilibrium potential of potassium −92 mV, read-out: Inhibitory action of buffer A (inactivated state)
[2] = Table 1, buffer B, equilibrium potential of potassium −110 mV, read-out: Inhibitory action of buffer B (resting state or closed state)
[3] = Tables 2 to 6, buffer A, equilibrium potential of potassium −92 mV, read-out: Inhibitory action of buffer A (inactivated state)

T1 sequence (O95180 whole entry): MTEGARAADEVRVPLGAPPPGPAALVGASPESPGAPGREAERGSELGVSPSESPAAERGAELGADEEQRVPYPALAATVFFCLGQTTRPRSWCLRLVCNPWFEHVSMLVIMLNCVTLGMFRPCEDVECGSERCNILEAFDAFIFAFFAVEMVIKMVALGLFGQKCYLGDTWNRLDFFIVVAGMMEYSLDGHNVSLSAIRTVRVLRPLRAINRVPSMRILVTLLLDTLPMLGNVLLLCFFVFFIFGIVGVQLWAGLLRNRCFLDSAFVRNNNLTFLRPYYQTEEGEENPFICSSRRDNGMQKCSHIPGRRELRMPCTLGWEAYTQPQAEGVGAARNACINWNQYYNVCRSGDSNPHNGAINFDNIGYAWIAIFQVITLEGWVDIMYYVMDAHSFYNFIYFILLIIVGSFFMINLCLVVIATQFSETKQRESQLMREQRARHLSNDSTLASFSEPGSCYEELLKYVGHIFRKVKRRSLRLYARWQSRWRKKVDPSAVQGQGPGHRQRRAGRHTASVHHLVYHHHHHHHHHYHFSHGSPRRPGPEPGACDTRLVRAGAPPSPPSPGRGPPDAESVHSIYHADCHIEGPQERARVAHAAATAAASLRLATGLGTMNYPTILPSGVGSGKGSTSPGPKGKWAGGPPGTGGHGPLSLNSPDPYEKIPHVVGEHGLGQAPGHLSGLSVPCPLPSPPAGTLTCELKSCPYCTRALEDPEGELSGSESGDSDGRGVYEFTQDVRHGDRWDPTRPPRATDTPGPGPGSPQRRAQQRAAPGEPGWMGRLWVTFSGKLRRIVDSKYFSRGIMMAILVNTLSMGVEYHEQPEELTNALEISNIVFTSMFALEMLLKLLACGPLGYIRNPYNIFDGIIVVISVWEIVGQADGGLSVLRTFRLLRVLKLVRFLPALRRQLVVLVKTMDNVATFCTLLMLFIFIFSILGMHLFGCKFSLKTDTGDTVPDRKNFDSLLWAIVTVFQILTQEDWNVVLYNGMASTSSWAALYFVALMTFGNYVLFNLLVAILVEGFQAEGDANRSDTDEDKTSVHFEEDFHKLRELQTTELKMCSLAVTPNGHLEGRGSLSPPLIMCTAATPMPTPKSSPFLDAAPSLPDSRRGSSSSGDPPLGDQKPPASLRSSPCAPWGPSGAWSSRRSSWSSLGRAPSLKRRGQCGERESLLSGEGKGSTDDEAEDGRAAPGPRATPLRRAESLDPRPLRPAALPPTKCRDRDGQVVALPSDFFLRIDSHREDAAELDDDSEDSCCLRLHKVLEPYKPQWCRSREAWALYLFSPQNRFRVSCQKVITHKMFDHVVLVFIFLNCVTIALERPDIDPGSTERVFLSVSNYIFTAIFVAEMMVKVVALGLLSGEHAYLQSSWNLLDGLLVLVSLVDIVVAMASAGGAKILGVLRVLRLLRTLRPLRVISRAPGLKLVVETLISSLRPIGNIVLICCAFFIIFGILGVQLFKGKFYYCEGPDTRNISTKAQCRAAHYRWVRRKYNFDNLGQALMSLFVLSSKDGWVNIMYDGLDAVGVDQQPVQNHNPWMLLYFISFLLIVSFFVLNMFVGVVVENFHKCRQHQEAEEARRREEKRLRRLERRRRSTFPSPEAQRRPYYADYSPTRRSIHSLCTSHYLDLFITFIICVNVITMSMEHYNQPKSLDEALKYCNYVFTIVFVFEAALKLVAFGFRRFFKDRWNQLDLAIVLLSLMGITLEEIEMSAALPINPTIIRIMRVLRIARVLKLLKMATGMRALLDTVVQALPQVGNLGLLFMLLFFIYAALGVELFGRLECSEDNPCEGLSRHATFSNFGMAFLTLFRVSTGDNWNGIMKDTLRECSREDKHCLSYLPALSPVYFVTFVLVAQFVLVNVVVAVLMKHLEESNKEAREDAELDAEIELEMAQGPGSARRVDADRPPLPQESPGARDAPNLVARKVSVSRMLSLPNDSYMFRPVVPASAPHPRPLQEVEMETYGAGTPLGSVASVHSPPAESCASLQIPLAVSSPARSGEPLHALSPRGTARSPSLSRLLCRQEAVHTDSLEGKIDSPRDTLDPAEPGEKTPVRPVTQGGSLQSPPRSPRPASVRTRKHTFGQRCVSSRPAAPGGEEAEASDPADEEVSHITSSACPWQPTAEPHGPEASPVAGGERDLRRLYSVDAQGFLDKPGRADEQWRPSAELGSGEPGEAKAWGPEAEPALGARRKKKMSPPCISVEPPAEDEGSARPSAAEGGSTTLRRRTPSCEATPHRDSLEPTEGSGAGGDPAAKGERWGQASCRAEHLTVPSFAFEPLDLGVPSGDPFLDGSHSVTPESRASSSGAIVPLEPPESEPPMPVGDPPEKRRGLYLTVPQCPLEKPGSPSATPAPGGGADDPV

| SMILES | IC50 [1] [nM] | IC50 [2] [nM] | IC50 [3] [nM] |
| --- | --- | --- | --- |
| C[C@@H](NC(=O)C1CC1c1nc2ccccc2[nH]1)c1cnn(CCC(F)(F)F)c1 (some centres unmarked) [Example 9] | > 10000 | – | – |
| CC(NC(=O)C1CC1c1nc2ccccc2[nH]1)c1cn(C(=O)OC(C)(C)C)c2ccccc12 (stereo not drawn) [Example 10, Trans-3-(1-(2-(1H-benzo[d]imidazol-2-yl)cyclopropanecarboxamido)ethyl)-1H-indole-1-carboxylic acid tert-butyl ester] | 100 to 1000 | 100 to 1000 | – |
| C[C@@H](NC(=O)[C@@H]1CCN(c2nc3ccccc3s2)C1)c1ccc(OCC(F)(F)F)s1 [Example 13, (R)-1-(benzo[d]thiazol-2-yl)-N—((R)-1-(5-(2,2,2-trifluoroethoxy)thiophen-2-yl)ethyl)pyrrolidine-3-carboxamide] | > 10000 | – | – |
| C[C@@H](NC(=O)[C@H]1CCN(CC(=O)NC(C)(C)C)C1)c1ccc(OCC(F)(F)F)s1 [Example 14, (S)-1-(2-(tert-butylamino)-2-oxoethyl)-N—((R)-1-(5-(2,2,2-trifluoroethoxy)thiophen-2-yl)ethyl)pyrrolidine-3-carboxamide hydrochloride] | 1000 to 10000 | 1000 to 10000 | – |
| C[C@@H](NC(=O)[C@@H]1CCN(CC(=O)Nc2nccs2)C1)c1ccc(OCC(F)(F)F)s1 [Example 16, (R)-1-(2-oxoethyl-2-(thiazol-2-ylamino)ethyl)-N—((R)-1-(5-(2,2,2-trifluoroethoxy)thiophen-2-yl)ethyl)pyrrolidine-3-carboxamide] | 100 to 1000 | 1000 to 10000 | – |
| C[C@@H](NC(=O)[C@@H]1CCN(CCC(C)(C)C)C1)c1ccc(OCC(F)(F)F)s1 [Example 18, (R)-1-(3,3-dimethylbutyl)-N—((R)-1-(5-(2,2,2-trifluoroethoxy)thiophen-2-yl)ethyl)pyrrolidine-3-carboxamide hydrochloride] | 1000 to 10000 | 1000 to 10000 | – |
| C[C@@H](NC(=O)[C@@H]1C[C@H]1c1nc2ccccc2[nH]1)c1ccc(C(=O)OC(C)(C)C)s1 [Example 25B, Trans-5-((1R)-1-(2-(1H-benzo[d]imidazol-2-yl)cyclopropane-1-carboxamido)ethyl)thiophene-2-carboxylic acid tert-butyl ester] | – | – | 1000 to 10000 |
| C[C@@H](NC(=O)[C@@H]1CCN(CC(=O)Nc2cnccn2)C1)c1ccc(OCC(F)(F)F)s1 [Example 37, (R)-1-(2-oxo-2-(pyrazin-2-ylamino)ethyl)-N—((R)-1-(5-(2,2,2-trifluoroethoxy)thiophen-2-yl)ethyl)pyrrolidine-3-carboxamide] | – | – | 1000 to 10000 |
| C[C@@H](NC(=O)[C@@H]1CCN(c2ccc(C(F)(F)F)cn2)C1)c1ccc(OCC(F)(F)F)s1 [Example 41, (R)—N—((R)-1-(5-(2,2,2-trifluoroethoxy)thiophen-2-yl)ethyl)-1-(5-(trifluoromethyl)pyridin-2-yl)pyrrolidine-3-carboxamide] | – | – | 1000 to 10000 |
| C[C@@H](NC(=O)[C@H]1C[C@@H]1c1nc(-c2ccccn2)c[nH]1)c1ccc(OCC(F)(F)F)s1 [Example 46, (1S,2S)-2-(4-(pyridin-2-yl)-1H-imidazol-2-yl)-N—((R)-1-(5-(2,2,2-trifluoroethoxy)thiophen-2-yl)ethyl)cyclopropane-1-carboxamide] | – | – | 100 to 1000 |
| CC(C(=O)NC12CC3CC(CC(C3)C1)C2)N1CC[C@@H](C(=O)N[C@H](C)c2cnc(OCC(F)(F)F)s2)C1 (stereo partly drawn) [Example 47, (3R)-1-(1-((adamantan-1-yl)amino)-1-oxopropan-2-yl)-N—((R)-1-(2-(2,2,2-trifluoroethoxy)thiazol-5-yl)ethyl)pyrrolidine-3-carboxamide] | – | – | ≤ 100 |
| C[C@@H](NC(=O)[C@H]1C[C@@H]1c1nc2ccccc2[nH]1)c1ccc2c(c1)OCO2 [Example 55, (1S,2S)—N—((R)-1-(benzo[d][1,3]dioxol-5-yl)ethyl)-2-(1H-benzo[d]imidazol-2-yl)cyclopropane-1-carboxamide] | – | – | 100 to 1000 |
| O=C(N[C@@H](c1ccc(C(F)(F)F)s1)C1CCCCC1)[C@H]1C[C@@H]1c1nc2ccccc2[nH]1 [Example 59, (1S,2S)-2-(1H-benzo[d]imidazol-2-yl)-N—((R)-cyclohexyl(5-(trifluoromethyl)thiophen-2-yl)methyl)cyclopropane-1-carboxamide] | – | – | 100 to 1000 |
| O=C(N[C@@H](c1ccc(C(F)(F)F)s1)C1CC1)[C@H]1C[C@@H]1c1nc2ccccc2[nH]1 [Example 69, (1S,2S)-2-(1H-benzo[d]imidazol-2-yl)-N—((R)-cyclopropyl(5-(trifluoromethyl)thiophen-2-yl)methyl)cyclopropane-1-carboxamide] | – | – | 100 to 1000 |
| C[C@@H](NC(=O)[C@H]1C[C@@H]1c1nc2ccccc2[nH]1)c1ccc2c(c1)OCCO2 [Example 70, (1S,2S)-2-(1H-benzo[d]imidazol-2-yl)-N—((R)-1-(2,3-dihydrobenzo[b][1,4]dioxin-6-yl)ethyl)cyclopropane-1-carboxamide] | – | – | 1000 to 10000 |
| C[C@@H](NC(=O)[C@H]1C[C@@H]1c1nc2ccccc2[nH]1)c1nc(C2CC2)no1 [Example 72, (1S,2S)-2-(1H-benzo[d]imidazol-2-yl)-N—((R)-1-(3-cyclopropyl-1,2,4-oxadiazol-5-yl)ethyl)cyclopropane-1-carboxamide] | – | – | 1000 to 10000 |
| C[C@@H](NC(=O)[C@H]1C[C@@H]1c1nc2ccccc2[nH]1)c1ccc(C2CC2)o1 [Example 74, (1S,2S)-2-(1H-benzo[d]imidazol-2-yl)-N—((R)-1-(5-cyclopropylfuran-2-yl)ethyl)cyclopropane-1-carboxamide] | – | – | 100 to 1000 |
| COc1ccc2oc([C@@H](C)NC(=O)[C@H]3C[C@@H]3c3nc4ccccc4[nH]3)cc2c1 [Example 79, (1S,2S)-2-(1H-benzo[d]imidazol-2-yl)-N—((R)-1-(5-methoxybenzofuran-2-yl)ethyl)cyclopropane-1-carboxamide] | – | – | 100 to 1000 |
| CC(NC(=O)[C@H]1C[C@@H]1c1nc2ccccc2[nH]1)c1cc2ncccc2o1 (stereo partly drawn) [Example 80, (1S,2S)-2-(1H-benzo[d]imidazol-2-yl)-N-(1-(furo[3,2-b]pyridin-2-yl)ethyl)cyclopropane-1-carboxamide] | – | – | 1000 to 10000 |
| C[C@@H](NC(=O)[C@H]1C[C@@H]1c1nc2cc(Cl)ccc2[nH]1)c1cc2cc(F)ccc2o1 [Example 81, (1S,2S)-2-(5-chloro-1H-benzo[d]imidazol-2-yl)-N—((R)-1-(5-fluorobenzofuran-2-yl)ethyl)cyclopropane-1-carboxamide] | – | – | ≤ 100 |
| C[C@@H](NC(=O)[C@H]1C[C@@H]1c1nc2ccccc2[nH]1)c1ccc(C(=O)N2CC(F)(F)C2)s1 [Example 83, (1S,2S)-2-(1H-benzo[d]imidazol-2-yl)-N—((R)-1-(5-(3,3-difluoroazetidine-1-carbonyl)thiophen-2-yl)ethyl)cyclopropane-1-carboxamide] | – | – | 100 to 1000 |
| C[C@@H](NC(=O)[C@H]1C[C@@H]1c1nc2ccccc2[nH]1)c1ccc(C(=O)N(C)C)s1 [Example 84, 5-((R)-1-((1S,2S)-2-(1H-benzo[d]imidazol-2-yl)cyclopropane-1-carboxamido)ethyl)-N,N-dimethylthiophene-2-carboxamide] | – | – | 1000 to 10000 |
| C[C@@H](NC(=O)[C@H]1C[C@@H]1c1nc2ccccc2[nH]1)c1ccc2ccn(C)c2c1 [Example 86, (1S,2S)-2-(1H-benzo[d]imidazol-2-yl)-N—((R)-1-(1-methyl-1H-indol-6-yl)ethyl)cyclopropane-1-carboxamide] | – | – | 1000 to 10000 |
| C[C@@H](NC(=O)[C@H]1C[C@@H]1c1nc2ccccc2[nH]1)c1ccc(C(=O)N2CCCCCC2)s1 [Example 87, (1S,2S)—N—((R)-1-(5-(azepane-1-carbonyl)thiophen-2-yl)ethyl)-2-(1H-benzo[d]imidazol-2-yl)cyclopropane-1-carboxamide] | – | – | 1000 to 10000 |
| C[C@@H](NC(=O)[C@H]1C[C@@H]1c1nc2ccccc2[nH]1)c1cnc(-c2ccccc2)s1 [Example 89, (1S,2S)-2-(1H-benzo[d]imidazol-2-yl)-N—((R)-1-(2-phenylthiazol-5-yl)ethyl)cyclopropane-1-carboxamide] | – | – | 100 to 1000 |

Reference: patent publication US11420944B2, “Voltage-dependent t-type calcium channel blocker” (Nippon Chemiphar Co., Ltd., priority 2016, dated 2022)
